From patent publication US9708557B2, “Process for the treatment of liquefied hydrocarbon gas using 2-amino-2(hydroxymethyl) propane-1,3-diol compounds” (Dow Global Technologies LLC, priority 2012, dated 2017)

What was measured:
[1] = Solubility of tested amine in heptane phase (gas chromatography, toluene internal standard); conditions: heptane 10 g, toluene 0.1 g, amine 2.5 g mixed at 20° C. for 1 hour, decanted 15 minutes; average of three injections
Description: A solution of heptane (10 g), toluene (0.1 g) and the tested amine (2.5 g) are mixed at 20° C. for 1 hour. The mixture is decanted for 15 minutes and the neat heptane phase is analyzed by gas chromatography using toluene as internal standard. The injection is repeated three times and peak areas of tested amine are averaged.

[2] = pKa by automated Mettler Toledo titration; conditions: 50 weight % aqueous amine solution

| area counts (GC peak area of tested amine in neat heptane phase) [1] [area counts] | pKa [2] | Structure (SMILES) |
| --- | --- | --- |
| 0 |  | NC(CO)(CO)CO [TA, 2-amino-2-(hydroxymethyl)propane-1,3-diol] |
| 50 | 9.1 | CN(C)C(CO)(CO)CO [DMTA, 2-dimethylamino-2-(hydroxymethyl)propane-1,3-diol] |
